Experimental data from patent US20230101747A1 (Schrödinger, Inc., priority 2019, published 2023).

target: T1, Full length human CDC7 protein co-expressed with DBF4 (Homo sapiens, UniProt O00311); assay: CDC7 kinase biochemical assay (ADP-Glo, PDKtide substrate); details: 0.1 nM CDC7/DBF4, 1 uM ATP, 10 uM PDKtide, 4 h; read-out: CDC7 ADP-Glo PDKtide IC50
T1 construct: Full length human CDC7 protein co-expressed with DBF4; purchased SignalChem (China)
Procedure: CDC7 Kinase Biochemical Assay Protocol:
Full length human CDC7 protein co-expressed with DBF4 was purchased from SignalChem (China). CDC7 kinase activity was determined with PDKtide (SignalChem) as a substrate and by measuring ADP production using the ADP-Glo™ Kinase Assay kit (Promega) following the manufacturers instructions. The kinase reaction was performed using the following conditions: Buffer: 40 mM Tris pH 7.5, 20 mM MgCl2, 0.1 mg/ml BSA and 50 uM DTT. Final reaction mix contained 0.1 nM CDC7/DBF4, 1 uM ATP and 10 uM PDKtide. The kinase reaction time was 4 h. The ADP-Glo signal was measured using an EnVision plate reader (PerkinELmer).
Percent inhibition of CDC7 kinase activity was calculated based on the following formula: […]
SSample: the signal of compounds SHigh ctrl: the signal of high control (DMSO) SLow Ctrl: the signal of low control (positive control CDC7 inhibitor)

T1 sequence (O00311 whole entry): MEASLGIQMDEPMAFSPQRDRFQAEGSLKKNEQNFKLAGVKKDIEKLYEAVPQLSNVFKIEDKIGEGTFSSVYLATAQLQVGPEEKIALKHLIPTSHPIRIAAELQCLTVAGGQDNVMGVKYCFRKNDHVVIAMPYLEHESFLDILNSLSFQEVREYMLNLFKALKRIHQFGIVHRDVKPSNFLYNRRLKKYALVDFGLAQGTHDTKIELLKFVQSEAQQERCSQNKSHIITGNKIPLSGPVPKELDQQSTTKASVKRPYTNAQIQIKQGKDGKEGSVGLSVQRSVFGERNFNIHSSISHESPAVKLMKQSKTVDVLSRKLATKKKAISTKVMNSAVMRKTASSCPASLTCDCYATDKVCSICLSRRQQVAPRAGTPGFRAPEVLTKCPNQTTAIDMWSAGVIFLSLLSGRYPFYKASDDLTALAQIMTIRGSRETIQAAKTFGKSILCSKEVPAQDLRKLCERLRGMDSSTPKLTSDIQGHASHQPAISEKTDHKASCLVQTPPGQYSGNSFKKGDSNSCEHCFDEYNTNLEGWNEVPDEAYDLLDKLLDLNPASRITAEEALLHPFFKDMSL
T1 sequence (Q9UBU7 whole entry partner): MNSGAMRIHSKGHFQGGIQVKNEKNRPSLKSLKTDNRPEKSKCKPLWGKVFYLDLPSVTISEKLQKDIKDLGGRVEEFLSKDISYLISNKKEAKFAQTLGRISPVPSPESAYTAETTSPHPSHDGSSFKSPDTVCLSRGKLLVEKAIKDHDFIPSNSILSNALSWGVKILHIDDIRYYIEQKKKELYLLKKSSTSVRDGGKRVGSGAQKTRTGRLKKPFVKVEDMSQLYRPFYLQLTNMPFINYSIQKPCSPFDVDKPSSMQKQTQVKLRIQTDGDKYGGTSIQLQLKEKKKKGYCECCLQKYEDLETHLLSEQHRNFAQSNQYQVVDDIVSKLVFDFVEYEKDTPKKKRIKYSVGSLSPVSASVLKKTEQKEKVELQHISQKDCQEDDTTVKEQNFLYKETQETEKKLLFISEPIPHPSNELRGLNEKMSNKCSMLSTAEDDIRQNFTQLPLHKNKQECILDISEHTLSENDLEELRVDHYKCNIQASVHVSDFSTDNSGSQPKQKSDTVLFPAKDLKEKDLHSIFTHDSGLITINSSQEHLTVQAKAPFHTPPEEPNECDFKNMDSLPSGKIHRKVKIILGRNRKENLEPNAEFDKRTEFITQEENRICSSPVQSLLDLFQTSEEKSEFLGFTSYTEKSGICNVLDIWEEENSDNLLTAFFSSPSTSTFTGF

IC50 [nM]	SMILES
< 1	CC1C(C2CCC2)NC(=O)c2sc(-c3cn[nH]c3)c3c2N1CCO3 (racemic) [Compound 96, 10-cyclobutyl-9-methyl-3-(1H-pyrazol-4-yl)-5-oxa-2-thia-8,11-diazatricyclo[6.4.1.0^4,13] trideca-1(13),3-dien-12-one]
> 10	O=C1NC[C@H](C2CCOCC2)N2CCOc3c(-c4cn[nH]c4)sc1c32 (single isomer, unassigned) [Compound 28]
1 to 10	COC[C@H]1[C@@H](C2CCC2)NC(=O)c2sc(-c3cn[nH]c3)c3c2N1CCO3 (single isomer, unassigned) [Compound 98]
1 to 10	COC[C@@H]1[C@H](C2CCC2)NC(=O)c2sc(-c3cn[nH]c3)c3c2N1CCO3 (single isomer, unassigned) [Compound 99]
< 1	O=C1NC(C2CCCCO2)CN2CCCc3c(-c4cn[nH]c4)sc1c32 (single isomer, unassigned) [Compound 107]
< 1	O=C1NC(C2CCCCO2)CN2CCCc3c(-c4cn[nH]c4)sc1c32 (single isomer, unassigned) [Compound 108]
> 10	O=C1NC(C2CCCCO2)CN2CCCc3c(-c4cn[nH]c4)sc1c32 (single isomer, unassigned) [Compound 109]
< 1	O=C1NC(C2CCCCO2)CN2CCCc3c(-c4cn[nH]c4)sc1c32 (single isomer, unassigned) [Compound 110]
< 1	O=C1NC(C2CC(F)(F)C2)CN2CCOc3c(-c4cn[nH]c4)sc1c32 (single isomer, unassigned) [Compound 111, (R or S)-7-(3,3-difluorocyclobutyl)-2-(1H-pyrazol-4-yl)-4,5,7,8-tetrahydro-3-oxa-1-thia-5a,8-diazabenzo[cd]azulen-9(6H)-one]
< 1	O=C1NC(C2CC(F)(F)C2)CN2CCOc3c(-c4cn[nH]c4)sc1c32 (single isomer, unassigned) [Compound 112, (S or R)-7-(3,3-difluorocyclobutyl)-2-(1H-pyrazol-4-yl)-4,5,7,8-tetrahydro-3-oxa-1-thia-5a,8-diazabenzo[cd]azulen-9(6H)-one]
< 1	O=C1NC(C2CC(F)(F)C2)CN2CC(F)(F)Cc3c(-c4cn[nH]c4)sc1c32 (single isomer, unassigned) [Compound 113, (R or S)-7-(3,3-difluorocyclobutyl)-4,4-difluoro-2-(1H-pyrazol-4-yl)-4,5,7,8-tetrahydro-3H-1-thia-5a,8-diazabenzo[cd]azulen-9(6H)-one]
< 1	O=C1NC(C2CC(F)(F)C2)CN2CC(F)(F)Cc3c(-c4cn[nH]c4)sc1c32 (single isomer, unassigned) [Compound 114, (R or S)-7-(3,3-difluorocyclobutyl)-4,4-difluoro-2-(1H-pyrazol-4-yl)-4,5,7,8-tetrahydro-3H-1-thia-5a,8-diazabenzo[cd]azulen-9(6H)-one]
< 1	Cc1n[nH]cc1-c1sc2c3c1CC(F)(F)CN3C[C@H]([C@H]1CCCO1)NC2=O (single isomer, unassigned) [Compound 119]
< 1	O=C1N[C@@H]([C@@H]2CCCO2)CN2CC(F)(F)Cc3c(-c4cn[nH]c4)sc1c32 (single isomer, unassigned) [Compound 120]
> 10	O=C1N[C@H](C23CCC(CC2)O3)CN2CC(F)(F)Cc3c(-c4cn[nH]c4)sc1c32 (single isomer, unassigned) [Compound 122]
< 1	O=C1NC([C@H]2[C@@H]3COC[C@@H]32)CN2CC(F)(F)Cc3c(-c4cn[nH]c4)sc1c32 (single isomer, unassigned) [Compound 123]
< 1	O=C1NC([C@H]2[C@@H]3COC[C@@H]32)CN2CC(F)(F)Cc3c(-c4cn[nH]c4)sc1c32 (single isomer, unassigned) [Compound 124]
< 1	O=C1NC(C2CC(F)(F)C2)CN2CC(F)Cc3c(-c4cn[nH]c4)sc1c32 (single isomer, unassigned) [Compound 127, 7-(3,3-difluorocyclobutyl)-4-fluoro-2-(1H-pyrazol-4-yl)-4,5,7,8-tetrahydro-3H-1-thia-5a,8-diazabenzo[cd]azulen-9(6H)-one]
1 to 10	O=C1NC(C2CC(F)(F)C2)CN2CC(F)Cc3c(-c4cn[nH]c4)sc1c32 (single isomer, unassigned) [Compound 128, 7-(3,3-difluorocyclobutyl)-4-fluoro-2-(1H-pyrazol-4-yl)-4,5,7,8-tetrahydro-3H-1-thia-5a,8-diazabenzo[cd]azulen-9(6H)-one]

IC50 [nM]	SMILES
< 1	O=C1NC(C2CC(F)(F)C2)CN2CC(F)Cc3c(-c4cn[nH]c4)sc1c32 (single isomer, unassigned) [Compound 129, 7-(3,3-difluorocyclobutyl)-4-fluoro-2-(1H-pyrazol-4-yl)-4,5,7,8-tetrahydro-3H-1-thia-5a,8-diazabenzo[cd]azulen-9(6H)-one]
< 1	O=C1NC(C2CC(F)(F)C2)CN2CC(F)Cc3c(-c4cn[nH]c4)sc1c32 (single isomer, unassigned) [Compound 130, 7-(3,3-difluorocyclobutyl)-4-fluoro-2-(1H-pyrazol-4-yl)-4,5,7,8-tetrahydro-3H-1-thia-5a,8-diazabenzo[cd]azulen-9(6H)-one]
> 10	O=C1N[C@H](C2CCCCO2)CN2CC(F)(F)Cc3c(-c4cn[nH]c4)sc1c32 (single isomer, unassigned) [Compound 137]
1 to 10	O=C1N[C@H](C2CCCCO2)CN2CC(F)(F)Cc3c(-c4cn[nH]c4)sc1c32 (single isomer, unassigned) [Compound 138]
< 1	O=C1N[C@@H](C2CCCCO2)CN2CC(F)(F)Cc3c(-c4cn[nH]c4)sc1c32 (single isomer, unassigned) [Compound 139]
< 1	O=C1N[C@@H]([C@@H]2CCCCO2)CN2CC(F)(F)Cc3c(-c4cn[nH]c4)sc1c32 (single isomer, unassigned) [Compound 140]
< 1	CC1(C)NC(=O)c2sc(-c3ccncn3)c3c2N1CCCN3 [Compound 1, 5,5-dimethyl-1-(pyrimidin-4-yl)-4,5,6,7,8,9-hexahydro-3H-2-thia-4,5a,9-triazabenzo[cd]azulen-3-one]
< 1	CC1(C)NC(=O)c2sc(-c3ccncc3)c3c2N1CCO3 [Compound 2, 6,6-dimethyl-2-(pyridin-4-yl)-4,5,6,7-tetrahydro-8H-3-oxa-1-thia-5a,7-diazaacenaphthylen-8-one]
< 1	CC1(C)NC(=O)c2sc(-c3ccncc3)c3c2N1CCCO3 [Compound 3, 5,5-Dimethyl-1-(pyridin-4-yl)-4,5,7,8-tetrahydro-3H,6H-9-oxa-2-thia-4,5a-diazabenzo[cd]azulen-3-one]
1 to 10	CC1(C)NC(=O)c2sc(-c3c[nH]c4ncncc34)c3c2N1CCO3 [Compound 4, 6,6-dimethyl-2-(7H-pyrrolo[2,3-d]pyrimidin-5-yl)-4,5,6,7-tetrahydro-8H-3-oxa-1-thia-5a,7-diazaacenaphthylen-8-one]
> 10	CC1(C)NC(=O)c2sc(-c3ccncn3)c3c2N1CCO3 [Compound 5, 6,6-Dimethyl-2-(pyrimidin-4-yl)-4,5,6,7-tetrahydro-8H-3-oxa-1-thia-5a,7-diazaacenaphthylen-8-one]
1 to 10	Cc1[nH]ncc1-c1sc2c3c1OCCN3C(C)(C)NC2=O [Compound 6, 6,6-dimethyl-2-(5-methyl-1H-pyrazol-4-yl)-4,5,6,7-tetrahydro-8H-3-oxa-1-thia-5a,7-diazaacenaphthylen-8-one]
> 10	CC1(C)NC(=O)c2sc(-c3ccnc4ccoc34)c3c2N1CCO3 [Compound 7, 2-(furo[3,2-b]pyridin-7-yl)-6,6-dimethyl-4,5,6,7-tetrahydro-8H-3-oxa-1-thia-5a,7-diazaacenaphthylen-8-one]
1 to 10	CC1(C)NC(=O)c2sc(-c3ccnc4[nH]ncc34)c3c2N1CCO3 [Compound 8, 6,6-dimethyl-2-(1H-pyrazolo[3,4-b]pyridin-4-yl)-4,5,6,7-tetrahydro-8H-3-oxa-1-thia-5a,7-diazaacenaphthylen-8-one]
1 to 10	CC1(C)NC(=O)c2sc(-c3c[nH]c4ncccc34)c3c2N1CCO3 [Compound 9, 6,6-dimethyl-2-(1H-pyrrolo[2,3-b]pyridin-3-yl)-4,5,6,7-tetrahydro-8H-3-oxa-1-thia-5a,7-diazaacenaphthylen-8-one]
1 to 10	CC1(C)NC(=O)c2sc(-c3c[nH]c4ncc(Cl)cc34)c3c2N1CCO3 [Compound 10, 2-(5-chloro-1H-pyrrolo[2,3-b]pyridin-3-yl)-6,6-dimethyl-4,5,6,7-tetrahydro-8H-3-oxa-1-thia-5a,7-diazaacenaphthylen-8-one]
1 to 10	CC1(C)NC(=O)c2sc(-c3ccnc(N)n3)c3c2N1CCO3 [Compound 11, 2-(2-aminopyrimidin-4-yl)-6,6-dimethyl-4,5,6,7-tetrahydro-8H-3-oxa-1-thia-5a,7-diazaacenaphthylen-8-one]
< 1	CC1(C)NC(=O)c2sc(-c3cn[nH]c3)c3c2N1CCO3 [Compound 12, 6,6-dimethyl-2-(1H-pyrazol-4-yl)-4,5,6,7-tetrahydro-8H-3-oxa-1-thia-5a,7-diazaacenaphthylen-8-one]
1 to 10	CC1(C)NC(=O)c2sc(-c3ccnc(N)c3)c3c2N1CCO3 [Compound 13, 2-(2-aminopyridin-4-yl)-6,6-dimethyl-4,5,6,7-tetrahydro-8H-3-oxa-1-thia-5a,7-diazaacenaphthylen-8-one]
